Key:
cyclin D1/cdk 4 enzyme = biological target: T1, cyclin D1/cdk 4 enzyme (Homo sapiens, UniProt P11802); assay: CDK4 ELISA kinase assay (phospho-Rb ser 795 detection); assay type: biochemical; conditions: In Vitro Enzyme Assays, 200 μM ATP, read-out: CDK4 IC50
T1 construct: made in house; host or cells: Sf9 insect cells, recombinant baculovirus
Outline: (§1)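 GST-Rb C-terminal fragment coated on plates; partially purified Sf9-expressed cyclin D1/CDK4, cyclin E/CDK2 or cyclin B/CDK1 with 200 μM ATP, pH 7.5 HEPES/MgCl2 buffer, 1 h at 30 °C; screen compound final 10 μg/ml. Phospho-Rb Ser795 detected by antibody ELISA (TMB, A450); % of control, IC50 from background-subtracted inhibition curves.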

LoVo = assay: Cytotoxicity assay (SRB), LoVo; assay type: cell-based; conditions: Homo sapiens, LoVo, 72 h, LoVo cells, SRB, three days; read-out: In Vitro Cellular Activity IC50 LOVO
Outline: (§2)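 Protein staining with sulforhodamine B after cold TCA fixation served as the survival endpoint (A540, relative to untreated cells). Before staining, cells were incubated with compound at 37 °C, 7% CO2 for 3 days, or 6 days for BT474.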

cyclin B/CDK1 enzyme = biological target: T2, cyclin B/CDK1 enzyme (Homo sapiens, UniProt P06493); assay: CDK1 ELISA kinase assay (phospho-Rb ser 795 detection); assay type: biochemical; conditions: In Vitro Enzyme Assays, read-out: CDK1 IC50
T2 construct: purchased New England BioLabs; host or cells: Sf9 insect cells, recombinant baculovirus
T2 sequence (P06493 whole entry): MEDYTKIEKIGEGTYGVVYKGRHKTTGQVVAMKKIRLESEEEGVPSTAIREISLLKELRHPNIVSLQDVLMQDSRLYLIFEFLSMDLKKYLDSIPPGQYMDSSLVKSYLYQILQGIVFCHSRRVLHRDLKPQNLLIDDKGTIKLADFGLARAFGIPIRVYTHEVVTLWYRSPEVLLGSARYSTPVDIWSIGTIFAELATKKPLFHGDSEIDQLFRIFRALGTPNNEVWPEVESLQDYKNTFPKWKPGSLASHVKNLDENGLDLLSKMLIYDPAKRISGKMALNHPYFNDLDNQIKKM
T2 sequence (P14635 whole entry partner): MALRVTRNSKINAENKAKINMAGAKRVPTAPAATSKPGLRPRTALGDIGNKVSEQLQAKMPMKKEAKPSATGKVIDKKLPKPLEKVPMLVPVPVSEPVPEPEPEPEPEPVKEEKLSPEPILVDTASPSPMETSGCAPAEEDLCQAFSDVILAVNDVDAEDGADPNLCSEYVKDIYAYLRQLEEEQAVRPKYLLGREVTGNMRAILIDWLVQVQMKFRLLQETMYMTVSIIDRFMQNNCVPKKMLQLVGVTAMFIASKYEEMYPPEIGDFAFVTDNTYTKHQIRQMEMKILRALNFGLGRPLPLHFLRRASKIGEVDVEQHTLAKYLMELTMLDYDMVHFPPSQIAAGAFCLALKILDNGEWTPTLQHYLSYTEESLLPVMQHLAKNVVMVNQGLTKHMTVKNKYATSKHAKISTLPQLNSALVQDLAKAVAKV
Outline: as §1

HCT-116 = assay: Cytotoxicity assay (SRB), HCT-116; assay type: cell-based; conditions: Homo sapiens, HCT-116, 72 h, HCT116 cells, SRB, three days; read-out: In Vitro Cellular Activity IC50 HCT116
Outline: as §2

cyclin E/CDK2 enzyme = biological target: T3, cyclin E/CDK2 enzyme (Homo sapiens, UniProt P24941); assay: CDK2 ELISA kinase assay (phospho-Rb ser 795 detection); assay type: biochemical; conditions: In Vitro Enzyme Assays, read-out: CDK2 IC50
T3 construct: made in house; host or cells: Sf9 insect cells, recombinant baculovirus
Outline: as §1

BT474 = assay: Cytotoxicity assay (SRB), BT474; assay type: cell-based; conditions: Homo sapiens, BT-474, 144 h, BT474 cells, SRB, 6 days; read-out: In Vitro Cellular Activity IC50 BT474
Outline: as §2

MCF-7 = assay: Cytotoxicity assay (SRB), MCF-7; assay type: cell-based; conditions: Homo sapiens, MCF7, 72 h, MCF-7 cells, SRB, three days; read-out: In Vitro Cellular Activity IC50 MCF-7
Outline: as §2

T1 sequence (P11802 whole entry, species assumed): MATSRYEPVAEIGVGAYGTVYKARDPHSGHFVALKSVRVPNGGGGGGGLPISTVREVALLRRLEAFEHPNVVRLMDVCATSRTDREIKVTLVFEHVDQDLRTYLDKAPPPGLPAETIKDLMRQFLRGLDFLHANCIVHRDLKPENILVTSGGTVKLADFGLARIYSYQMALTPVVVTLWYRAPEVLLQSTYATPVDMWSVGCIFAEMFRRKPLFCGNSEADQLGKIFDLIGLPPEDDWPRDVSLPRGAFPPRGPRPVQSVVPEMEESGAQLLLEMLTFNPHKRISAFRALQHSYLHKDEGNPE
T1 sequence (P24385 whole entry partner, species assumed): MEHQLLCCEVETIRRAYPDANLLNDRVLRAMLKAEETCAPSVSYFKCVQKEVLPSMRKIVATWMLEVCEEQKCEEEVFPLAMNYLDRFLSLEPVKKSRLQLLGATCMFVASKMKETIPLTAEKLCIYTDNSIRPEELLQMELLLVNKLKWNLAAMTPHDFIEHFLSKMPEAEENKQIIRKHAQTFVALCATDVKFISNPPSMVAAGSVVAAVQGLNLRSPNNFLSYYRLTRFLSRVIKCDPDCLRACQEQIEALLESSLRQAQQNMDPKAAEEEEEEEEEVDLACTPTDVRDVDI

## CCCOc1ccc(CN/C=C2\C(=O)NC(=O)c3cc(OC)c(Br)cc32)cc1O [Example 246, 6-Bromo-4-[(3-hydroxy-4-propoxy-benzylamino)-methylene]-7-methoxy-4H-isoquinoline-1,3-dione]
other
  melting point: 212 to 214 °C (dec.)
Cyclin D1/cdk 4 enzyme
  IC50: 28.3 µM
LoVo
  IC50: 37 µM
Cyclin B/CDK1 enzyme
  IC50: > 50 µM
HCT-116
  IC50: 22 µM
Cyclin E/CDK2 enzyme
  IC50: > 50 µM
BT474
  IC50: 2 µM
MCF-7
  IC50: > 50 µM

## CN1CCN(c2ccc(N/C=C3\C(=O)NC(=O)c4ccc(Br)cc43)cn2)CC1 [Example 250, (4Z)-6-Bromo-4-({[6-(4-methylpiperazin-1-yl)pyridin-3-′yl]amino}methylene)isoquinoline-1,3(2H,4H)-dione]
other
  melting point: 265 to 266 °C
Cyclin D1/cdk 4 enzyme
  IC50: 2.8 µM
LoVo
  IC50: 7.1 µM
Cyclin B/CDK1 enzyme
  IC50: > 50 µM
HCT-116
  IC50: 6.2 µM
Cyclin E/CDK2 enzyme
  IC50: > 50 µM
BT474
  IC50: 7.6 µM
MCF-7
  IC50: 1.6 µM

## COc1cc2c(cc1-c1ccc(F)cc1)/C(=C/Nc1ccc(CN3CCCCC3)cc1)C(=O)NC2=O [Example 253, 6-(4-Fluoro-phenyl)-7-methoxy-4-[(4-piperidin-1-ylmethyl-phenylamino)-methylene]-4H-isoquinoline-1,3-dione]
other
  melting point: 227 to 230 °C
Cyclin D1/cdk 4 enzyme
  IC50: 2.9 µM
LoVo
  IC50: 2.6 µM
Cyclin B/CDK1 enzyme
  IC50: > 50 µM
HCT-116
  IC50: 1.1 µM
Cyclin E/CDK2 enzyme
  IC50: > 50 µM
BT474
  IC50: 2.8 µM
MCF-7
  IC50: 2 µM

## COc1cc2c(cc1-c1ccoc1)/C(=C/Nc1ccc(N3CCN(C)CC3)cc1)C(=O)NC2=O [Example 254, 6-Furan-3-yl-7-methoxy-4-{[4-(4-methyl-piperazin-1-yl)-phenylamino]-methylene}-4H-isoquinoline-1,3-dione]
other
  melting point: 198 to 220 °C
Cyclin D1/cdk 4 enzyme
  IC50: 7.4 µM
LoVo
  IC50: 4.8 µM
Cyclin B/CDK1 enzyme
  IC50: > 50 µM
HCT-116
  IC50: 2 µM
Cyclin E/CDK2 enzyme
  IC50: > 50 µM
BT474
  IC50: 2.1 µM
MCF-7
  IC50: 2.4 µM

## CO[C@@H]1CCN(Cc2ccc(N/C=C3\C(=O)NC(=O)c4ccc(I)cc43)cc2)C1 [Example 264, (4Z)-6-Iodo-4-{[(4-{[(3R)-3-methoxypyrrolidin-1-yl]methyl}phenyl)amino]methylene}isoquinoline-1,3(2H,4H)-dione]
other
  melting point: 160 to 161 °C
Cyclin D1/cdk 4 enzyme
  IC50: 1 µM
LoVo
  IC50: 8.8 µM
Cyclin B/CDK1 enzyme
  IC50: > 50 µM
HCT-116
  IC50: 4.4 µM
Cyclin E/CDK2 enzyme
  IC50: > 50 µM
BT474
  IC50: 2.2 µM
MCF-7
  IC50: 2 µM

## CO[C@H]1CCN(Cc2ccc(N/C=C3\C(=O)NC(=O)c4ccc(-c5ccc(F)cc5)cc43)cc2)C1 [Example 265, (4Z)-6-(4-Fluorophenyl)-4-{[(4-{[(3S)-3-methoxypyrrolidin-1-yl]methyl}phenyl)amino]methylene}isoquinoline-1,3(2H,4H)-dione]
other
  melting point: 145 to 146 °C
Cyclin D1/cdk 4 enzyme
  IC50: 0.3 µM
LoVo
  IC50: 2.8 µM
Cyclin B/CDK1 enzyme
  IC50: > 50 µM
HCT-116
  IC50: 2 µM
Cyclin E/CDK2 enzyme
  IC50: > 50 µM
BT474
  IC50: 1.7 µM
MCF-7
  IC50: 1.4 µM

## CO[C@@H]1CCN(Cc2ccc(N/C=C3\C(=O)NC(=O)c4ccc(Br)cc43)cc2)C1 [Example 266, (4Z)-6-Bromo-4-{[(4-{[(3R)-3-methoxypyrrolidin-1-yl]methyl}phenyl)amino]methylene}isoquinoline-1,3(2H,4H)-dione]
other
  melting point: 132 to 133 °C
Cyclin D1/cdk 4 enzyme
  IC50: 1.9 µM
LoVo
  IC50: 8.4 µM
Cyclin B/CDK1 enzyme
  IC50: > 50 µM
HCT-116
  IC50: 6.2 µM
Cyclin E/CDK2 enzyme
  IC50: > 50 µM
BT474
  IC50: 9.1 µM
MCF-7
  IC50: 4 µM

## O=C1NC(=O)c2ccc(I)cc2/C1=C/NCc1ccc(OC(F)F)c(O)c1 [Example 267]
other
  melting point: 254 to 255 °C
Cyclin D1/cdk 4 enzyme
  IC50: 0.008 µM
LoVo
  IC50: 3.7 µM
Cyclin B/CDK1 enzyme
  IC50: 16.5 µM
HCT-116
  IC50: 3.7 µM
Cyclin E/CDK2 enzyme
  IC50: 1.7 µM
BT474
  IC50: 3.5 µM
MCF-7
  IC50: 4.8 µM

## O=C1NC(=O)c2ccc(I)cc2/C1=C/Nc1ccc(Cn2ccnc2)cc1 [Example 273, (4Z)-4-({[4-(1H-Imidazol-1-ylmethyl)phenyl]amino}methylene)-6-iodoisoquinoline-1,3(2H,4H)-dione]
other
  melting point: 275 to 276 °C
Cyclin D1/cdk 4 enzyme
  IC50: 24.7 µM
LoVo
  IC50: 7.9 µM
Cyclin B/CDK1 enzyme
  IC50: > 50 µM
HCT-116
  IC50: 3 µM
Cyclin E/CDK2 enzyme
  IC50: 12.3 µM
BT474
  IC50: 7.5 µM
MCF-7
  IC50: 13 µM

## CCCOc1ccc(CNC=C2C(=O)NC(=O)c3ccc(-n4cccc4)cc32)cc1O [Example 278, 4-[(3-Hydroxy-4-propoxy-benzylamino)-methylene]-6-pyrrol-1-yl-4H-isoquinoline-1,3-dione]
other
  melting point: 215 to 216 °C (dec.)
Cyclin D1/cdk 4 enzyme
  IC50: 0.03 µM
LoVo
  IC50: 4.7 µM
Cyclin B/CDK1 enzyme
  IC50: > 50 µM
HCT-116
  IC50: 2.9 µM
Cyclin E/CDK2 enzyme
  IC50: > 50 µM
BT474
  IC50: 5 µM
MCF-7
  IC50: 6.3 µM

## O=C1NC(=O)c2ccc(-c3ccc(C(F)(F)F)cc3)cc2/C1=C/Nc1ccc(CN2CCCC2)cc1 [Example 282, (4Z)-4-({[4-(Pyrrolidin-1-ylmethyl)phenyl]amino}methylene)-6-[4-(trifluoromethyl)phenyl]isoquinoline-1,3(2H,4H)-dione]
other
  melting point: 176 to 177 °C
Cyclin D1/cdk 4 enzyme
  IC50: 27.7 µM
LoVo
  IC50: 2.7 µM
Cyclin B/CDK1 enzyme
  IC50: > 50 µM
HCT-116
  IC50: 1.1 µM
Cyclin E/CDK2 enzyme
  IC50: > 50 µM
BT474
  IC50: 3 µM
MCF-7
  IC50: 1.1 µM

## O=C1NC(=O)c2ccc(Br)cc2/C1=C/Nc1ccc(CN2CCOCC2)cc1 [Example 286, (4Z)-6-Bromo-4-({[4-(morpholin-4-ylmethyl)phenyl]amino}methylene)isoquinoline-1,3(2H,4H)-dione]
other
  melting point: 209 to 210 °C
Cyclin D1/cdk 4 enzyme
  IC50: 3 µM
LoVo
  IC50: 11 µM
Cyclin B/CDK1 enzyme
  IC50: > 50 µM
HCT-116
  IC50: 5.8 µM
Cyclin E/CDK2 enzyme
  IC50: > 50 µM
BT474
  IC50: 16 µM
MCF-7
  IC50: 5.5 µM

## CC1CCCN1Cc1ccc(N/C=C2\C(=O)NC(=O)c3ccc(Br)cc32)cc1 (stereo not drawn) [Example 287, (4Z)-6-Bromo-4-[({4-[(2-methylpyrrolidin-1-yl)methyl]phenyl}amino)methylene]-isoquinoline-1,3(2H,4H)-dione]
other
  melting point: 183 to 184 °C
Cyclin D1/cdk 4 enzyme
  IC50: 1.6 µM
LoVo
  IC50: 5.4 µM
Cyclin B/CDK1 enzyme
  IC50: > 50 µM
HCT-116
  IC50: 4.2 µM
Cyclin E/CDK2 enzyme
  IC50: > 50 µM
BT474
  IC50: 1.3 µM
MCF-7
  IC50: 1.7 µM

## CN1CCN(c2ccc(N/C=C3\C(=O)NC(=O)c4ccc(Br)cc43)cc2F)CC1 [Example 288, (4Z)-6-Bromo-4-({[3-fluoro-4-(4-methylpiperazin-1-yl)phenyl]amino}methylene)-isoquinoline-1,3(2H,4H)-dione]
other
  melting point: 206 to 207 °C
Cyclin D1/cdk 4 enzyme
  IC50: 2.9 µM
LoVo
  IC50: 2 µM
Cyclin B/CDK1 enzyme
  IC50: > 50 µM
HCT-116
  IC50: 1.7 µM
Cyclin E/CDK2 enzyme
  IC50: > 50 µM
BT474
  IC50: 1.8 µM
MCF-7
  IC50: 1.5 µM

## CC1CCCN1Cc1ccc(N/C=C2\C(=O)NC(=O)c3ccc(-c4ccc(F)cc4)cc32)cc1 (stereo not drawn) [Example 289, (4Z)-6-(4-Fluorophenyl)-4-[({4-[(2-methylpyrrolidin-1-yl)methyl]phenyl}amino)-methylene]isoquinoline-1,3(2H,4H)-dione]
other
  melting point: 165 to 166 °C
Cyclin D1/cdk 4 enzyme
  IC50: 0.31 µM
LoVo
  IC50: 7.4 µM
Cyclin B/CDK1 enzyme
  IC50: > 50 µM
HCT-116
  IC50: 2.2 µM
Cyclin E/CDK2 enzyme
  IC50: > 50 µM
BT474
  IC50: 1.3 µM
MCF-7
  IC50: 0.9 µM

## CN1CCN(c2ccc(N/C=C3\C(=O)NC(=O)c4ccc(-c5ccc(F)cc5)cc43)cc2F)CC1 [Example 290, (4Z)-4-({[3-Fluoro-4-(4-methylpiperazin-1-yl)phenyl]amino}methylene)-6-(4-fluorophenyl)isoquinoline-1,3(2H,4H)-dione]
other
  melting point: 166 to 167 °C
Cyclin D1/cdk 4 enzyme
  IC50: 0.32 µM
LoVo
  IC50: 5.4 µM
Cyclin B/CDK1 enzyme
  IC50: > 50 µM
HCT-116
  IC50: 1.8 µM
Cyclin E/CDK2 enzyme
  IC50: > 50 µM
BT474
  IC50: 2.5 µM
MCF-7
  IC50: 2.3 µM

## CC1CCCN1Cc1ccc(N/C=C2\C(=O)NC(=O)c3ccc(-c4ccoc4)cc32)cc1 (stereo not drawn) [Example 291, (4Z)-6-(3-Furyl)-4-[({4-[(2-methylpyrrolidin-1-yl)methyl]phenyl}amino)methylene]-isoquinoline-1,3(2H,4H)-dione]
other
  melting point: 165 to 166 °C
Cyclin D1/cdk 4 enzyme
  IC50: 0.19 µM
LoVo
  IC50: 1.9 µM
Cyclin B/CDK1 enzyme
  IC50: > 50 µM
HCT-116
  IC50: 2.3 µM
Cyclin E/CDK2 enzyme
  IC50: > 50 µM
BT474
  IC50: 1 µM
MCF-7
  IC50: 0.59 µM

## CN1CCN(c2ccc(N/C=C3\C(=O)NC(=O)c4ccc(I)cc43)cc2F)CC1 [Example 295, (4Z)-4-({[3-Fluoro-4-(4-methylpiperazin-1-yl)phenyl]amino}methylene)-6-iodoisoquinoline-1,3(2H,4H)-dione]
other
  melting point: 211 to 212 °C
Cyclin D1/cdk 4 enzyme
  IC50: 1.5 µM
LoVo
  IC50: 3.7 µM
Cyclin B/CDK1 enzyme
  IC50: > 50 µM
HCT-116
  IC50: 3.1 µM
Cyclin E/CDK2 enzyme
  IC50: > 50 µM
BT474
  IC50: 3.1 µM
MCF-7
  IC50: 1.8 µM
